Here are results for 89 compounds from a melting point compilation (Tetko et al.; mined from patent text by program, amines drawn as free bases though some values may be those of a salt).

Broadly, the melting point is the temperature, or range, at which the solid turns liquid. Compound `Cc1cccc(Sc2ccc(C(=O)O)s2)c1` had a melting point of 73 to 75 °C.
The value for `CC1(C)Oc2ccc(C3=NNC(=O)CC3)cc2NC1=O` was 251 to 254 °C; that for `C(=CCN(c1ccccc1)c1cccc2ccccc12)CN(c1ccccc1)c1cccc2ccccc12` was 140 to 142 °C.
As for `Cc1ccc(S(=O)(=O)Nc2coc3ccccc3c2=S)cc1`, the figure is 212 °C; as for `CCN(CC)CCOc1ccc(Nc2ncc3c(n2)N(C)C(=O)N(c2ccccc2C)C3)cc1`, 132 °C.
The value for `Nc1cc(N2CCC(O)CC2)c(F)cc1[N+](=O)[O-]` was 238 to 239 °C; that for `Cc1csc(NC(=O)C2=C(O)c3ccc4ccccc4c3S(=O)(=O)N2C)n1` was 177 °C; that for `NC(=O)c1c(Cl)c(-c2ccccc2)n2c1CN(S(=O)(=O)Nc1ccc(C(F)(F)F)cc1)CC2` was 209 to 211 °C.
Consider `Nn1nc(-c2ccc(Cl)cc2)cc1OCCN1CCCCC1`, for which the melting point is 119 °C.
As for `COc1ccc2[nH]c(=O)c(=O)n(C)c2c1`, the figure is 310 °C; as for `O=C(C1CCN(c2ccncc2)CC1)N1CCN(Cc2ccc(Br)cc2)CC1`, 148 to 149 °C; as for `CCNS(=O)(=O)c1ccc(NC(C)=O)cc1`, 90 to 91 °C.
The value for `O=c1cc(-c2ccccc2)oc2c(CN3CCN(CCO)CC3)c(O)c(O)c(O)c12` was 192 °C.
As for `CCOC1CC2(C)C(CCC3C4CCC(C(=O)OC)C4(C)CC(NCCC(C)C)C32)CC1O` (centres undefined), the figure is 122 to 124 °C; as for `O=C(O)COc1cccc2c1CCc1sc(OCCC(c3ccccc3)c3ccccc3)nc1-2`, 165 to 166 °C.
On to `ON=C1CCC(c2ccc(Cl)cc2)c2ccccc21` (centres undefined), for which the melting point fell in the range of 150 to 154 °C.
As for `CCCCN1C(=O)CC(c2cc(C(C)(C)C)c(O)c(C(C)(C)C)c2)C1=O` (centres undefined), the figure is 109 to 112 °C; as for `Cc1nc(Cl)c2c(c1O)COC2c1ccccc1` (centres undefined), 230 °C; as for `CN(C)C=C(C(=O)C(=O)c1ccccc1C(=O)O)c1ccccc1`, 153 °C.
The compound `CCCCCCCCCCc1c(C(=O)OCC)sc2c1sc1c3sc(C(=O)OCC)c(CCCCCCCCCC)c3sc21` yielded a melting point of 130 to 132 °C.
As for `CCc1cc(Br)cc2[nH]c(=O)oc(=O)c12`, the figure is 208 to 210 °C; as for `Cc1ccc(Oc2ccccc2-c2noc(=O)[nH]2)c(O)c1`, 213 to 214 °C; as for `CNC(=O)C(Cc1ccc(OC)cc1)NC(=O)C(C)(CC(C)C)c1ccccc1S` (centres undefined), 165 to 168 °C.
As for `O=C(O)Cn1c(-c2ccc(Cl)cc2)nc2ccc(Cl)nc21`, the figure is above 250 °C.
As for `CON=C(C(=O)OC)c1csc(NC(=O)CCl)n1`, the figure is 131 °C; as for `CCOC(=O)CCCCCc1oc(=O)[nH]c1-c1ccc(Cl)cc1`, 113 to 114 °C; as for `CC(C)C(NS(=O)(=O)c1ccc(-c2ccc([N+](=O)[O-])cc2)cc1)C(=O)O` (centres undefined), 165 to 167 °C.
For `Nc1c(Br)cc(Br)c(CCC(=O)O)c1Br`, the melting point fell in the range of 195 to 197 °C.
On to `COc1ccc(C(=O)Nc2ccccc2)cc1NC(=S)Nc1ccc(C(F)(F)F)cc1`, for which the melting point was in the range of 194 to 196 °C.
`CCOC(=O)N1CCC(SC(c2ccccc2)c2ccccc2)CC1` yielded a melting point of 70 to 71 °C.
The value for `CCc1cc(-c2[nH]c3ccccc3c2CC)cc(CC)c1O` was 96.3 to 96.7 °C.
The value for `CCn1ncc2c(NCc3ccccc3)c3ccc(OC)cc3nc21` was 163 to 164 °C; that for `NC(=O)N(c1ccc(-c2c(CCO)sc3ncnc(N)c23)cc1)c1cccc(C(F)(F)F)c1` was 155 to 158 °C.
`CC1(C)CC(=O)OC(C(Cl)(Cl)Cl)C1Cl` (centres undefined) had a melting point of 83 to 84 °C.
The value for `O=C(Nc1cccnc1)c1c(OCC2CC2)ccc2oc3ccccc3c12` was 238 to 240 °C; that for `CS(=O)(=O)Nc1ccc(C(O)CN2CCCCCC2)cc1` (centres undefined) was 120 to 122 °C.
As to `COc1cc2c(cc1OC)CC(=O)N(Cc1cccnc1)C=C2`, the melting point lay within 144 to 146 °C.
As for `CCCCCCc1ccc(-n2c(-c3ccc(C)cc3)cc(OC)c2-c2ccc(C)cc2)cc1`, the figure is 128 to 130 °C.
As for `CNC(=O)C=Cc1cn(C)nc1[N+](=O)[O-]`, the figure is 200 to 203 °C.
The value for `CC(CC(=O)O)n1nnnc1S` (centres undefined) was 169 to 172 °C.
Take `CCOC(=O)CC(=O)c1cccc([N+](=O)[O-])c1C`: the melting point was in the range of 50 to 51 °C.
The value for `CNC(=O)[C@H]1CN(c2cc(F)c(N3CCOCC3)c(F)c2)C(=O)O1` was 179 to 181 °C.
The value for `O=C(CCc1ccccc1)CN1C(=O)CC1S(=O)Cc1ccccc1` (centres undefined) was 110 to 111 °C; that for `O=C(O)c1nc2cc(-n3ccnc3)c([N+](=O)[O-])cc2[nH]c1=O` was above 300 °C; that for `Cc1nc2c3c(c(CO)cc2n1C)CCC1(Cc2ccccc2C1)N3` was 272 to 274 °C.
The value for `Cn1ccc(Nc2ccc([N+](=O)[O-])cc2[N+](=O)[O-])n1` was 150 °C; that for `O=C1N(CC2CN(Cc3ccccc3)CCO2)c2ccccc2C12COc1cc3c(cc12)OCCO3` (centres undefined) was 88 to 100 °C; that for `O=C(O)CCNc1ccc(C(=O)c2ccccc2)cc1[N+](=O)[O-]` was 170 to 175 °C.
In turn, `Cc1ccccc1C(CCC(=O)O)Oc1cc(OCc2cccc(C(=O)O)c2)ccc1[N+](=O)[O-]` (racemic) displayed a melting point of 85 to 87 °C.
The value for `O=C(N[C@H](Cc1cccc(OC(F)(F)C(F)F)c1)[C@@H](O)c1ccc(Oc2ccccc2)cc1)c1cccc2c1C=CCCC2` (racemic) was 95 to 96 °C.
As for `Cc1ncccc1CN1CCC(=C2c3ccc(Cl)cc3CCc3cccnc32)CC1`, the melting point lay in the range of 81.4 to 87.2 °C.
The value for `CCC(=O)OC(C)c1ccc(-c2ccc(O)cc2)cc1` (single isomer, unassigned; (+)) was 133 to 135 °C; that for `CCCCCCCCCCCCN1C(=O)C=CC1=O` was 56 °C.
The value for `CC(CCCNC(=O)CCCCCBr)C(F)(F)F` (centres undefined) was 96 to 98 °C; that for `O=C(CCN1CCCCC1)Nc1cccc(NC(=O)Nc2ccc(N(CCCl)CCCl)cc2)c1` was 108 to 110 °C; that for `Nc1cc(=O)n(CCC2=CCCCC2)c(=O)n1CCC1=CCCCC1` was 172 to 174 °C.
In turn, `CSc1cc(C=O)nn1C` returned a melting point of 47 to 48 °C.
As for `Nc1nc2ccccc2c2c1nc(-c1ccccc1)n2CCCCNC(=O)c1ccc2ccccc2n1`, the figure is 81.1 to 83.9 °C; as for `CCON=C(C(C)=NO)c1ccc(OC(C)c2ccc(Cl)cc2)cc1` (centres undefined), 132 to 134 °C; as for `Cc1c(C)c2c(c(C)c1O)SC(CCC(N)=O)O2` (centres undefined), 160 to 161 °C.
As for `Nc1cc(Br)ccc1C(=O)NCc1ccc(Br)cc1F`, the figure is 143 to 144 °C; as for `O=C(C=Cc1cccc(Cl)c1)c1ccccc1O`, 108 °C.
As for `CCOC(=O)C(C#N)=Cc1c(Cl)n(Cc2cccc(Cl)c2)c2ccccc12`, the figure is 130 to 132 °C; as for `CCc1nn(CCO)c(CO)c1Sc1cc(Cl)cc(Cl)c1`, 106 to 108 °C.
Compound `CC1(C)CC(c2ccc3ccccc3c2)c2ccc(O)cc2O1` (centres undefined) registered a melting point of 189 to 191 °C.
As for `CC(C)c1ccc2c(c1)c(SCc1ccccc1)c(CC(C)(C)C(=O)O)n2Cc1ccc(Cl)cc1`, the figure is 135 to 137 °C; as for `COc1cc(Nc2nccc(-c3cccc(OCCCN4C(=O)c5ccccc5C4=O)c3)n2)cc(OC)c1OC`, 209 °C.
`O=C(O)c1ccc(NN=C2CCCC2)cc1` showed a melting point of 250 to 253 °C.
As for `COc1ccc(COc2ccc(/C=C/c3cc(/C=C/c4ccc5cc[nH]c5c4)n[nH]3)c(OC)c2)cc1`, the figure is 211 to 214 °C.
`NS(=O)(=O)c1ccc(NC(=O)c2ccccc2SSCC(O)CO)cc1` (centres undefined) registered a melting point above 260 °C.
The value for `Cc1c(C2CCC(c3ccccc3)(N(C)C)CC2)[nH]c2ccc(C(F)(F)F)cc12` (centres undefined) was 204 to 217 °C; that for `CCSc1cc(O)nc(N(C)C)n1` was 184 to 185 °C.
Compound `CC(Oc1ccc(F)cc1F)(C(=O)Nc1nccs1)c1ccc(S(C)(=O)=O)cc1` (centres undefined) came in with a melting point of 89 to 90 °C.
The value for `CC(C)NC(=O)Nc1c(C(=O)c2ccccc2)[nH]c2cc(Cl)ccc12` was 265 to 266 °C; that for `CC(=O)Nc1ccc(CCC(=O)O)cc1` was 127 to 138 °C.
As for `O=C1N(Cc2ccc3ccccc3c2)c2ccccc2N=C2CCCC12Cc1ccc2ccccc2c1` (centres undefined), the figure is 191 to 193 °C.
As for `O=c1c2c(Cc3ccccc3Cl)n[nH]c2c2cccnc2n1-c1cccc(C(F)(F)F)c1`, the figure is 276 to 278 °C; as for `Oc1ccc(O)c(C(F)(F)F)c1`, 114 to 115 °C; as for `CN(Cc1ccc(NC(=O)C2=Cc3cc(Br)ccc3S(=O)(=O)CC2)cc1)C1CCOCC1`, 232 to 235 °C.
In turn, `Cc1cnc(C)n2c1c(CCSC1=NCCN1)c1ccccc12` showed a melting point of 157 to 159 °C.
Turning to `CC(C)(C)OC(=O)COc1ccc(-c2c(Cl)c(CN3C(=O)CCC3=O)nc3sc4c(c23)CCS(=O)C4)cc1` (centres undefined), the melting point is 175 to 176 °C.
As for `CCn1cc(C(=O)O)c(=O)c2cc(F)c(N3CCNC(COC(C)C)C3)cc21` (centres undefined), the figure is 144 to 146 °C; as for `CCOC(=O)c1nc[nH]c1C(=O)OCC`, 175 to 177 °C; as for `CCCCCC(=O)c1cc2c(cc1/C=C/c1ccc(C(=O)O)cc1)C(C)(C)CCC2(C)C`, 118 to 119 °C.
In the case of `CCOC(=O)C1=C(C)NC(C)=C(C(=O)OCC)C1c1cccc(Cl)c1Cl`, the melting point was in the range of 125 to 126 °C.
The value for `CN1CCN(c2cc3c(Cl)cccc3c(=O)[nH]2)CC1` was 230 to 231 °C; that for `O=C1CCC(=O)N1CC#CCN1CCCC1` was 93 to 94 °C.
As for `CC(C)(SCC(N)=O)c1ccc2c(c1)OCO2`, the figure is 70 to 71.5 °C; as for `Cc1cc(-c2cc(C(=O)O)c(=O)n(CC=Cc3ccccc3)n2)ccc1F`, 143 to 144 °C.
